Tested on: MCMV
Test: In vivo challenge of newborn ICR mice with K181-Nluc/Green, live and organ imaging
Protocol: To verify whether recombinant virus K181-Nluc/Green can be applied to evaluate potential drugs, neutralizing antibodies, vaccines, etc. against CMV in vivo. The inventors of the present invention carried out in vivo challenge test with ICR mice in the Animal Biosafety Laboratory (ABSL-2). […] Twelve newborn ICR mice were divided into three groups: control group (PBS), placebo group (DMSO) and ganciclovir (GCV) treatment group. By intracerebroventricular injection (I.C.), 1 μl (4×10^5 PFU) K181-Nluc/Green virus solution was injected into the lateral ventricles of newborn mice (P0) to establish the brain infection model of MCMV virus. After 1 day of challenge, 50 mg/kg GCV was given to mice every day until the 7th day after infection, and the Nanoluc substrate (Cat. #N1120, Promega, USA) was intraperitoneally injected on the 1st, 3rd, 5th, 7th, 9th, 11th and 14th days after infection.
In addition, seven days after the mice were infected, one mouse was randomly selected from the placebo (DMSO) group and the GCV treatment group, and Nanoluc substrate was injected intraperitoneally. […] The organs and tissues of mice were taken, and the content of MCMV virus in organs and tissues of mice in different groups was evaluated by fluorescence activity.

Nc1nc(O)c2ncn(COC(CO)CO)c2n1 [GCV, ganciclovir]
Nluc or GFP signals in different organs of mice (I.C. 4×10^5 PFU K181-Nluc/Green, 50 mg/kg GCV every day, 7 days after infection (FIGS. 14 and 15)): no detection of apparent Nluc or GFP signals | MCMV replication and spreading in vivo (I.C. K181-Nluc/Green, 50 mg/kg GCV every day until the 7th day): effectively reduce the MCMV replication and spreading in vivo

Source: patent US20250361526A1, “[…] CYTOMEGALOVIRUS-DERIVED TOOL VIRUS, METHOD OF PRODUCING THE SAME AND APPLICATIONS THEREOF” (WUHAN INSTITUTE OF VIROLOGY, CHINESE ACADEMY OF SCIENCES, priority 2022, published 2025)
